The target in one series is T1, human MATE1 (Homo sapiens, UniProt Q96FL8).
T1 construct: expressed in transfected cells; host or cells: HEK293 (HEK293/hMATE1; gift from Dr. Inoue, Tokyo University of Pharmacy and Life Science)
T1 sequence (Q96FL8 1-570): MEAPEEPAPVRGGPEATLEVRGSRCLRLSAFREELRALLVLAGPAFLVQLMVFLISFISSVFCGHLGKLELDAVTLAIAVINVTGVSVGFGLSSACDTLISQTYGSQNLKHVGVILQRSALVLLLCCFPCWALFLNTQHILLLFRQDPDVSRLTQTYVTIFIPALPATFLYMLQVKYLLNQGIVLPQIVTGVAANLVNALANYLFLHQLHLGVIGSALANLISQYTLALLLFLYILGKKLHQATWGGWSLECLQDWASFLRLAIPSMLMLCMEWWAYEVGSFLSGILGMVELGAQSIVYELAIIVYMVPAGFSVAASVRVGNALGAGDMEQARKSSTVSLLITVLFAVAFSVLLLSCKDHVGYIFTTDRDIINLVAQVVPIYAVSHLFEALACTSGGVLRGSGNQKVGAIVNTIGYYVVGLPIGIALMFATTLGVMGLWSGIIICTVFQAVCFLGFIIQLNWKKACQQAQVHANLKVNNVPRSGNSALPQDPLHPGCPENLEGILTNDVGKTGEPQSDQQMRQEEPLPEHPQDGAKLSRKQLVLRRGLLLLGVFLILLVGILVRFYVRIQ
Put plainly: Uptake of [3H]MPP+ by MATE1-expressing HEK293 cells. It is filed as cell-based. The following applies: for MATE1-mediated uptake of MPP+, % of Control: after subtraction of uptake by mock cells. As for the experimental part: HEK293 cells transfected with human MATE1 (HEK293/hMATE1) and vector alone (mock) were gifts from Dr. Inoue (Tokyo University of Pharmacy and Life Science). […] HEK293/mock and HEK293/hMATE1 cells were plated at a density of 3.0 × 10^5 cells/well on 24-well plates and cultured for two days before an uptake assay. […] Radioactivity was measured with a liquid scintillation counter (Hitachi Aloka Medical, Tokyo, Japan). Part of the lysate was used for the determination of total protein amount with Bio-Rad protein assay dye reagent. Uptake of MPP^+ was expressed as a cell-to-medium ratio (μL/mg protein) obtained by dividing the uptake amount by the concentration of substrate in the TM. Percentages of control were calculated as the ratio of MATE1-mediated uptake of MPP^+ that obtained after subtraction of the uptake of MPP^+ by mock cells in compound treated groups to that in control group.

A short description of series [1]: Plasma concentration of oxonic acid and adenine in hyperuricemic rats. The series is classed as in vivo, rat. The following applies: hyperuricemic rats given oral oxonic acid […] and adenine 0.1 g/kg; detection limit 100 μM for oxonic acid.
Series [2] in a line: Pharmacokinetic study after intravenous administration in control and hyperuricemic rats (plasma, urine, kidney).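 As to all read-outs here: Pentobarbital-anesthetized rats with cannulated bladder, jugular plasma, timed urine and saline kidney homogenate assayed by HPLC or LC-MS/MS, Kp as kidney over plasma level at 4 h.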 The following applies: for AUC0-4 / Kp, kidney / Kp at 4 h: creatinine; for Kp at 4 h / AUC(0-t) / concentration at 0.5 min / concentration at 30 min / concentration at 60 min: rat; for Kp at 4 h: kidney; for AUC(0-t) / concentration at 0.5 min / concentration at 30 min / concentration at 60 min: plasma; for concentration at 0.5 min / concentration at 30 min / concentration at 60 min: Plasma concentration.
Procedure: Rats were anesthetized with pentobarbital, and the bladder was cannulated with polyethylene tubing (inside diameter 0.5 mm, outside diameter 0.8 mm). […] Blood was drawn through the jugular vein, and plasma was obtained by centrifugation at 3,000 rpm for 10 min at 4°C. Urine was collected at the designated times. […] All samples were stored at -80°C until measurement.
If necessary, plasma and urine were diluted 10- to 100-fold and 10- to 10000-fold with saline, respectively, for high-performance liquid chromatography (HPLC) or liquid chromatography/tandem mass spectrometry (LC-MS/MS) measurement. […] Prepared samples were mixed for 1 min and centrifuged at 15,000 rpm for 5 min at 4°C. The resultant supernatant was used for LC-MS/MS analysis. The LC-MS/MS system consisted of a triple-quadrupole mass spectrometer (API 3200^TM, SCIEX, Foster City, CA) coupled with an ultrafast liquid chromatography system (LC-20AD, Shimadzu, Kyoto, Japan). […] For metformin, the mobile phase consisted of 0.1% formic acid and acetonitrile (30 : 70), and the flow rate was 0.4 mL/min.
The plasma concentration-time data were analyzed by non-compartmental analysis. The area under the plasma concentration-time curve (AUC0-4) was obtained by application of the trapezoidal rule from time 0 to 4 h. AUC from 0 to infinity (AUCinf) was estimated by extrapolation to infinity.

In another series the test system is Mock cells. Put plainly: Uptake of MPP+ by mock cells (background for MATE1-expressing cells). The series is classed as cell-based. The following applies: 100 µM; replicates and mean. As for the experimental part: Dunnett's test was used for uptake study to compare the control group to groups treated with drugs.
Percentages of control were calculated as the ratio of MATE1-mediated uptake of MPP^+ that obtained after subtraction of the uptake of MPP^+ by mock cells in compound treated groups to that in control group.

Series [3] can be described thus: Inulin clearance in control and hyperuricemic rats. The series is classed as in vivo, rat. The following applies: Day 10, inulin 100 mg/kg iv. As for the experimental part: Urine was collected at the designated times. […] All samples were stored at -80°C until measurement.
Inulin was measured by the anthrone method. After adding 500 mL concentrated sulfuric acid to 200 mL distilled water and cooling the solution to room temperature, 1.4 g anthrone (Sigma Aldrich) was added to it at 56°C to prepare the anthrone reagent. An aliquot of the reagent (400 μL) was added to 10 μL of plasma or urine suitably diluted with saline. The tube containing the sample was immersed in ice-cold water, shaken well and then allowed to react for 10 min at 56°C. The vial was immersed in ice-cold water to stop the reaction. The absorbance at 636 nm was measured with a spectrophotometer (UVmini1240, Shimadzu).

The mark [4] stands for this setting: control rats, individual rats and mean.
Setting [5] is: hyperuricemic rats, individual rats and mean.

Where “and” joins values, the source holds several entries; their conditions need not be identical. Equal entries are not always repeated.

Broadly, the Kp is the ratio of the level in a tissue or fluid to that in plasma or blood. In general, AUC(0-t) refers to the area under the concentration-time curve up to a stated or last time point.

For the compound `Nc1ncnc2nc[nH]c12` [adenine], the “MATE1-mediated uptake of MPP+, % of Control” value on human MATE1 (Adenine 50 µM, replicates and mean) was 68.3 % of Control and 107.0 % of Control; on human MATE1 (Adenine 500 µM, replicates and mean), 89.5 % of Control and 71.0 % of Control and 100.5 % of Control; on human MATE1 (Adenine 500 µM, replicates and mean, mean) it was 87.0 % of Control. Also, the Plasma concentration entry in series [1] is “lower than 100 μM”.
Consider `CN1CC(=O)NC1=N` [Creatinine, creatinine], for which the Plasma concentration in series [2] (control rats, 0.5 min after iv metformin 30 mg/kg or cephalexin 10 mg/kg (creatinine endogenous), individual rat) was 19.0 µM and 21.0 µM; in series [2] (control rats, 30 min after iv metformin 30 mg/kg or cephalexin 10 mg/kg (creatinine endogenous), individual rat) it was 20.1 µM and 20.4 µM; in series [2] (control rats, 60 min after iv metformin 30 mg/kg or cephalexin 10 mg/kg (creatinine endogenous), individual rat), 18.9 µM and 19.0 µM; in series [2] (hyperuricemic rats, 0.5 min after iv metformin 30 mg/kg or cephalexin 10 mg/kg (creatinine endogenous), individual rat), 36.4 µM and 30.6 µM; in series [2] (hyperuricemic rats, 30 min after iv metformin 30 mg/kg or cephalexin 10 mg/kg (creatinine endogenous), individual rat) it was 34.4 µM and 30.6 µM; in series [2] (hyperuricemic rats, 60 min after iv metformin 30 mg/kg or cephalexin 10 mg/kg (creatinine endogenous), individual rat) it was 34.5 µM and 36.2 µM. Also, the “Urinary excretion (cumulative)” value in series [2] (control rats, 10 min, individual rats and mean) is 0.04 mg and 0.06 mg and 0.09 mg and 0.07 mg; in series [2] (control rats, 20 min, individual rats and mean) it was 0.10 mg and 0.12 mg and 0.16 mg and 0.13 mg; in series [2] (control rats, 30 min, individual rats and mean), 0.13 mg and 0.19 mg and 0.22 mg and 0.18 mg; in series [2] (control rats, 60 min, individual rats and mean), 0.18 mg and 0.30 mg and 0.32 mg and 0.27 mg; in series [2] (control rats, 120 min, individual rats and mean), 0.46 mg and 0.61 mg and 0.52 mg and 0.53 mg; in series [2] (control rats, 240 min, individual rats and mean) it was 0.98 mg and 1.44 mg and 1.32 mg and 1.25 mg. Besides, the “Urinary excretion (cumulative)” value in series [2] (hyperuricemic rats, 10 min, individual rats and mean) is 0.12 mg (3×) and 0.11 mg; in series [2] (hyperuricemic rats, 20 min, individual rats and mean), 0.19 mg (3×) and 0.20 mg; in series [2] (hyperuricemic rats, 30 min, individual rats and mean) it was 0.26 mg (2×) and 0.28 mg and 0.25 mg; in series [2] (hyperuricemic rats, 60 min, individual rats and mean), 0.42 mg and 0.39 mg and 0.44 mg and 0.43 mg; in series [2] (hyperuricemic rats, 120 min, individual rats and mean), 0.69 mg and 0.58 mg and 0.73 mg and 0.76 mg; in series [2] (hyperuricemic rats, 240 min, individual rats and mean), 1.22 mg and 0.95 mg and 1.24 mg and 1.48 mg. Further, the AUC0-4 is 5400 µM·min and 5463 µM·min in series [2] (setting [4]); 10502 µM·min and 8634 µM·min in series [2] (setting [5]). Also, the “Kp, kidney” value in series [2] (setting [4]) was 10.4 and 11.3; in series [2] (setting [5]), 11.7 and 17.3. In addition, the Kp at 4 h in series [2] (intravenous, control rats, individual rats and mean) is 8.8; in series [2] (intravenous, hyperuricemic rats, individual rats and mean), 12. Further, the AUC(0-t) is 87.6 µM·h in series [2] (intravenous, AUC0-4, creatinine, control rats, individual rats and mean); 171 µM·h in series [2] (intravenous, AUC0-4, creatinine, hyperuricemic rats, individual rats and mean); 89.5 µM·h in series [2] (iv, AUC0-4, control rats, iv metformin 30 mg/kg or cephalexin 10 mg/kg, creatinine endogenous, mean n=3); 163 µM·h in series [2] (iv, AUC0-4, hyperuricemic rats, iv metformin 30 mg/kg or cephalexin 10 mg/kg, creatinine endogenous, mean n=3). The concentration at 0.5 min in series [2] (intravenous, control rats, 0.5 min after iv metformin 30 mg/kg or cephalexin 10 mg/kg (creatinine endogenous), individual rat) was 17.7 µM; in series [2] (intravenous, control rats, 0.5 min after iv metformin 30 mg/kg or cephalexin 10 mg/kg (creatinine endogenous), mean n=3), 19.2 µM; in series [2] (intravenous, hyperuricemic rats, 0.5 min after iv metformin 30 mg/kg or cephalexin 10 mg/kg (creatinine endogenous), individual rat), 24.6 µM; in series [2] (intravenous, hyperuricemic rats, 0.5 min after iv metformin 30 mg/kg or cephalexin 10 mg/kg (creatinine endogenous), mean n=3) it was 30.5 µM. For the same compound, the concentration at 30 min in series [2] (intravenous, control rats, 30 min after iv metformin 30 mg/kg or cephalexin 10 mg/kg (creatinine endogenous), individual rat) came to 19.5 µM; in series [2] (intravenous, control rats, 30 min after iv metformin 30 mg/kg or cephalexin 10 mg/kg (creatinine endogenous), mean n=3), 20 µM; in series [2] (intravenous, hyperuricemic rats, 30 min after iv metformin 30 mg/kg or cephalexin 10 mg/kg (creatinine endogenous), individual rat), 25.9 µM; in series [2] (intravenous, hyperuricemic rats, 30 min after iv metformin 30 mg/kg or cephalexin 10 mg/kg (creatinine endogenous), mean n=3), 30.3 µM. The concentration at 60 min in series [2] (intravenous, control rats, 60 min after iv metformin 30 mg/kg or cephalexin 10 mg/kg (creatinine endogenous), individual rat) was determined as 22.9 µM; in series [2] (intravenous, control rats, 60 min after iv metformin 30 mg/kg or cephalexin 10 mg/kg (creatinine endogenous), mean n=3) it was 20.3 µM; in series [2] (intravenous, hyperuricemic rats, 60 min after iv metformin 30 mg/kg or cephalexin 10 mg/kg (creatinine endogenous), individual rat) it was 26.5 µM; in series [2] (intravenous, hyperuricemic rats, 60 min after iv metformin 30 mg/kg or cephalexin 10 mg/kg (creatinine endogenous), mean n=3) it was 32.4 µM.
For the compound `CN/C(=N/CCSCc1nc[nH]c1C)NC#N` [cimetidine], on human MATE1 (100 µM, replicates and mean, 100 µM), the “MATE1-mediated uptake of MPP+, % of Control” value was 5.0 % of Control and 14.6 % of Control. Also, the “C/M ratio of MPP+ uptake, MATE1-expressing cells” value on human MATE1 (100 µM, replicates and mean) was 36.0 µL/mg protein and 18.8 µL/mg protein. On human MATE1 (positive control Mate1 inhibitor, concentration not given, HEK293/hMATE1), the “MATE1-mediated uptake of [3H]MPP+, percentage of control” value worked out at 8.2%. Moreover, the “C/M ratio of MPP+ uptake, Mock cells” value in the series with Mock cells was 9.40 µL/mg protein and 10.25 µL/mg protein and 9.69 µL/mg protein.
As for inulin, the “Inulin Clearance” value was 5.90 mL/min/kg and 7.51 mL/min/kg and 6.75 mL/min/kg in series [3] (control rats, individual rat); 6.72 mL/min/kg in series [3] (control rats, mean); 7.92 mL/min/kg and 4.99 mL/min/kg and 6.15 mL/min/kg and 4.14 mL/min/kg and 3.58 mL/min/kg in series [3] (hyperuricemic rats, individual rat); 5.36 mL/min/kg in series [3] (hyperuricemic rats, mean).
For `O=c1[nH]c(=O)c2[nH]c(=O)[nH]c2[nH]1` [uric acid], the “MATE1-mediated uptake of [3H]MPP+, percentage of control” value on human MATE1 (50 μM test compound, HEK293/hMATE1 minus mock, 0.25 nM [3H]MPP+, 0.5 min, 37°C) turned out to be 102.0%; at human MATE1 (500 μM test compound, HEK293/hMATE1 minus mock, 0.25 nM [3H]MPP+, 0.5 min, 37°C) it was 100.7%. In addition, the “Inhibitory effect on MATE1-mediated MPP+ uptake” value at human MATE1 (50 and 500 μM of each) is on record as “No inhibitory effects”. For the same compound, the “MATE1-mediated uptake of MPP+, % of Control” value is 96.8 % of Control and 81.0 % of Control and 128.4 % of Control at human MATE1 (Uric acid 50 µM, replicates and mean); 102.0 % of Control on human MATE1 (Uric acid 50 µM, replicates and mean, mean); 87.8 % of Control and 117.9 % of Control and 96.4 % of Control at human MATE1 (Uric acid 500 µM, replicates and mean); 100.7 % of Control on human MATE1 (Uric acid 500 µM, replicates and mean, mean).

Source of the values: paper PMC6450621, “Changes of drug pharmacokinetics mediated by downregulation of kidney organic cation transporters Mate1 and Oct2 in a rat model of hyperuricemia” (PLoS ONE, 2019).
